From ChEMBL document CHEMBL3751794, “α-Aryl pyrrolidine sulfonamides as TRPA1 antagonists” (Bioorg Med Chem Lett, 2016) come the findings set out here.

Data set [1] concerns the target Transient receptor potential cation channel subfamily A member 1 (Homo sapiens, UniProt O75762). Kind of data set: Inhibition of human TRPA1.
Data set [2] can be described thus: Lipophilicity, log D of compound at pH 7.4. In kind it is physicochemical. Conditions: buffer.
Data set [3] in a line: Kinetic solubility of compound. In kind it is physicochemical. Conditions: read-out: Kinetic_solubility.
The target of data set [4] is Transient receptor potential cation channel subfamily A member 1 (Rattus norvegicus, UniProt Q6RI86). Kind of data set: Inhibition of rat TRPA1.
Chain of Transient receptor potential cation channel subfamily A member 1 (Rattus norvegicus, UniProt Q6RI86) (Q6RI86 whole entry): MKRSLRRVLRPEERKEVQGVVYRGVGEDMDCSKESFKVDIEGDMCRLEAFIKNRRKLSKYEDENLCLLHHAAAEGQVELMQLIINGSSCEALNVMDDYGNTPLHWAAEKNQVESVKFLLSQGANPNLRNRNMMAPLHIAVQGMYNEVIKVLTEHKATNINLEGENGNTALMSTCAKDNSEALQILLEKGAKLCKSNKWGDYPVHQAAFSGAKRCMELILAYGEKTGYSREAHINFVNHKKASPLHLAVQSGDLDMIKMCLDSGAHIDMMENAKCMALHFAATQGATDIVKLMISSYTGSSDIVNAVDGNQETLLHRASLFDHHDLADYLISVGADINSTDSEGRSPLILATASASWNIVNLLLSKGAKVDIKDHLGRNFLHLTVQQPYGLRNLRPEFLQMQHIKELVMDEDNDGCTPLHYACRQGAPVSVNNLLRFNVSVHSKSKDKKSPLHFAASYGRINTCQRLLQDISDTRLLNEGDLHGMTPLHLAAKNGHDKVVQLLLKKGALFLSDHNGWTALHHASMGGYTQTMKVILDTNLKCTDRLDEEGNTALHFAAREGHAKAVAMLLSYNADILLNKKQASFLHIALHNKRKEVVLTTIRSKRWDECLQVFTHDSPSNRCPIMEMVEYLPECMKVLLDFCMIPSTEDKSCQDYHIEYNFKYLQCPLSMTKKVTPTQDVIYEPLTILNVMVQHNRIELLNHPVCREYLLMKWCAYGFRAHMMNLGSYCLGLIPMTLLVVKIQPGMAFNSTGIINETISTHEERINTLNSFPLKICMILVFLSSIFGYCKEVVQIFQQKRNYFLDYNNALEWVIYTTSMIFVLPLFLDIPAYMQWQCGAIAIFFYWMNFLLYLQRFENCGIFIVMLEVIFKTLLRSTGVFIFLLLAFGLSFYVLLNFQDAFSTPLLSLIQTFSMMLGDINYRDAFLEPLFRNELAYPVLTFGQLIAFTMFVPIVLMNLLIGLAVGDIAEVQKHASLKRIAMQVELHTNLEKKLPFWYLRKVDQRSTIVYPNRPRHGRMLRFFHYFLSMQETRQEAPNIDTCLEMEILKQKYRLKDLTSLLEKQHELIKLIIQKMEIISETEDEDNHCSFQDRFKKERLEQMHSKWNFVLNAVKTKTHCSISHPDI
Data set [5] can be described thus: Permeability across MDCK cells. The data set is classed as ADME, cell-based, Canis lupus familiaris. As to conditions: dog, read-out: permeability.
A short description of data set [6]: Plasma protein binding in human. The data set is classed as ADME, cell-free. Conditions: read-out: PPB (converted).

Chain of Transient receptor potential cation channel subfamily A member 1 (Homo sapiens, UniProt O75762) (O75762 whole entry): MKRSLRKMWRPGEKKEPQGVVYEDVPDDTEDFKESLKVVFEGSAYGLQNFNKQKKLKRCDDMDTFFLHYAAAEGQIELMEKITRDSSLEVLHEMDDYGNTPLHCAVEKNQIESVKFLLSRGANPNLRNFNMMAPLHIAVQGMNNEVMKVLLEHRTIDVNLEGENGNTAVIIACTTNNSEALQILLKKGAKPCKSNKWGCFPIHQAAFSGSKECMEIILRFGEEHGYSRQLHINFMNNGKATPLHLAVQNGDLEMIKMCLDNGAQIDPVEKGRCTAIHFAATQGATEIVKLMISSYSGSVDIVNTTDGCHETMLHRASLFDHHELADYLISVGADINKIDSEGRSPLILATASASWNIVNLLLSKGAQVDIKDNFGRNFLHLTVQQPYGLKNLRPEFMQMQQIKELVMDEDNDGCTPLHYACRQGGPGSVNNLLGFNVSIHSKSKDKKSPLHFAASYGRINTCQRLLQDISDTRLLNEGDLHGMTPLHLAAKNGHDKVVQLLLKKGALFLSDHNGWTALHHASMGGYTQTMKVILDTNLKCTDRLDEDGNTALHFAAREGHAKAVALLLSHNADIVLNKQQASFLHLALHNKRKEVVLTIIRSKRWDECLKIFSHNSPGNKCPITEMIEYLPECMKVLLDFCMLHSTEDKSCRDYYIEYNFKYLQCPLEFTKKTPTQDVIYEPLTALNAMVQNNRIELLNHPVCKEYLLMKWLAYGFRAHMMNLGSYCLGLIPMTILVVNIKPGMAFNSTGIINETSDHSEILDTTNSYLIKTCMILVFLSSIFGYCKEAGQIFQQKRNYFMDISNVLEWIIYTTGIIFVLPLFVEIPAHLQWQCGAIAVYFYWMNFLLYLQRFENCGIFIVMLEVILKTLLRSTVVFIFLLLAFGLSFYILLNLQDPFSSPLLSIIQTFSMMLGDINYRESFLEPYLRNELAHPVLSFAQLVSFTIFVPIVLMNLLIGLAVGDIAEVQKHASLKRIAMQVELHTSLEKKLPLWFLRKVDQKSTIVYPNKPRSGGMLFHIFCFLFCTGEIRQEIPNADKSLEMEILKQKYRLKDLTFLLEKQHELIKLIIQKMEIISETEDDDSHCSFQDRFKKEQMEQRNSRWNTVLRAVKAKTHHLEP

On to `Cc1cc(S(=O)(=O)N2[C@H](CO)CC[C@@H]2c2ccc(F)cc2)cc(C)c1F`, for which, in data set [1], half-maximal inhibition (IC50) was put at 63 nM. Also, in data set [2], the logD (as a rule, the decadic logarithm of the distribution of all forms, ionised or not, between an organic phase and buffer at a given pH) came out at 3.3.

Consider `Cc1cc(S(=O)(=O)N2C[C@H](F)C[C@@H]2c2ccc(F)cc2)cc(C)c1F`, for which, in data set [1], the IC50 – broadly, the concentration that inhibits the measured activity by half – is 380 nM. For the same compound, the logD in data set [2] came out at 2.6.

For `O=S(=O)(c1cc(Cl)c(F)c(Cl)c1)N1CCC[C@@H]1c1ccc(F)cc1`, inhibition in data set [1] was half-maximal at 350 nM (IC50). In addition, the logD in data set [2] was 4.6.

In data set [1], `O=S(=O)(c1ccc(F)cc1)N1CCC[C@@H]1c1ccc(F)cc1` registered a half-maximal inhibitory concentration (IC50) of 6600 nM. This compound displayed a logD in data set [2] of 3.2.

In the case of `O=S(=O)(c1ccccc1)N1[C@H](CO)CC[C@@H]1c1ccc(F)cc1`, in data set [1], the half-maximal inhibitory concentration (IC50) is above 19000 nM. In data set [2], this compound registered a logD of 2.2.

In data set [1], `CNC[C@@H]1CC[C@H](c2ccc(F)cc2)N1S(=O)(=O)c1cc(C)c(F)c(C)c1` came in with an IC50 above 20000 nM. This compound registered a logD in data set [2] of 2.7.

Compound `Cc1cc(S(=O)(=O)N2[C@H](CO)CC[C@@H]2c2ccc(F)cc2)cc(Cl)c1F` gave an IC50 in data set [1] of 130 nM. In data set [2], this compound had a logD of 3.6.

In data set [1], `COC[C@@H]1CC[C@H](c2ccc(F)cc2)N1S(=O)(=O)c1cc(C)c(F)c(C)c1` came in with an IC50 of 270 nM. Also, the logD in data set [2] was determined as 3.9.

Take `Cc1cc(C(=O)N2[C@H](CO)CC[C@@H]2c2ccc(F)cc2)cc(C)c1F`: the IC50 in data set [1] is above 20000 nM. In data set [2], this compound had a logD of 3.1.

With `Cc1cc(S(=O)(=O)N2[C@H](CO)CC[C@@H]2c2ccc(F)cc2)ccc1F`, the IC50 in data set [1] is 190 nM. This compound also yielded a logD in data set [2] of 2.8.

In turn, `Cc1cc(S(=O)(=O)N2[C@H](CNCC(F)(F)F)CC[C@@H]2c2ccc(F)cc2)cc(C)c1F` gave an IC50 in data set [1] above 20000 nM. The logD in data set [2] was found to be 4.3.

In the case of `Cc1cc(S(=O)(=O)N2CCC[C@@H]2c2ccc(F)cc2)cc(C)c1F`, inhibition in data set [1] was half-maximal at 110 nM (IC50). Besides, the logD in data set [2] worked out at 4.4.

For `Cc1cc(CN2[C@H](CO)CC[C@@H]2c2ccc(F)cc2)cc(C)c1F`, inhibition in data set [1] was half-maximal at 6700 nM (IC50). The compound also yielded a logD in data set [2] of 4.

As for `O=S(=O)(c1cccnc1)N1[C@H](CO)CC[C@@H]1c1ccc(F)cc1`, the IC50 in data set [1] was above 20000 nM. The compound also had a logD in data set [2] of 1.1.

Take `Cc1cc(S(=O)(=O)N2CC[C@@H](F)[C@@H]2c2ccc(F)cc2)cc(C)c1F`: in data set [1], half-maximal inhibition (IC50) required 20 nM. In data set [2], this compound came in with a logD of 3.9.

In turn, `O=S(=O)(c1ccc(F)cn1)N1[C@H](CO)CC[C@@H]1c1ccc(F)cc1` came in with an IC50 in data set [1] above 20000 nM. Also, the logD in data set [2] amounted to 2.

As for `Cc1cc(S(=O)(=O)N2CC(F)(F)C[C@@H]2c2ccc(F)cc2)cc(C)c1F`, the IC50 in data set [1] amounted to 23 nM. For the same compound, the logD in data set [2] amounted to 4.2.

With `Cc1cc(S(=O)(=O)N2[C@H](CN(C)C)CC[C@@H]2c2ccc(F)cc2)cc(C)c1F`, in data set [1], the half-maximal inhibitory concentration (IC50) was above 18000 nM. For the same compound, the logD in data set [2] is 3.7.

Regarding `O=S(=O)(c1cc(Cl)c(F)c(Cl)c1)N1[C@H](CO)CC[C@@H]1c1ccc(F)cc1`, the solubility kinetic in data set [3] was below 1 µM. Besides, the IC50 amounted to 7300 nM in data set [4] and 110 nM in data set [1]. Moreover, the Papp in data set [5] worked out at 5.7 ×10⁻⁶ cm/s. Besides, the fraction unbound in data set [6] was 0.006. This compound also displayed a logD in data set [2] of 3.8.

As for `Cc1cc(C)cc(S(=O)(=O)N2[C@H](CO)CC[C@@H]2c2ccc(F)cc2)c1`, in data set [1], the IC50 amounted to 290 nM. The logD in data set [2] stood at 3.2.
